Data: patent US20230056335A1, “TOPICAL FORMULATION CONTAINING RAPAMYCIN” (NOBELPHARMA CO., LTD., priority 2020, published 2023)

How the values were obtained:
[1] = Solubility of sirolimus in each single solvent (visual observation); assay type: physicochemical; conditions: sirolimus:solvent 1:50 (weight ratio)
Method: Sirolimus was mixed into each solvent shown in Table 1 so that sirolimus:solvent was a ratio of 1:50 (weight ratio), heating and ultrasonic irradiation were performed thereon in a water bath of about 50° C., and solubility was confirmed by visual observation.

[2] = test system: EFT-400 kit skin model; experiment: Penetration test for ointment into skin model; assay type: in vitro ADME
Method: Penetration of an ointment into a skin model was tested using the sirolimus ointment prepared in Example 4 as a test substance and an EFT-400 kit manufactured by MetTec Corporation as the skin model.
Skin model cells were transferred to a 6-well plate into which an EFT-400 assay medium was dispensed, and the cells were incubated overnight (for 16 to 18 hours) in a carbon dioxide incubator (37° C., 5% CO2, under a humidified condition).
About 50 mg of the test substance was applied onto the center of the cultured skin cells and evenly spread on the cells. These cells were incubated for 24 hours in a carbon dioxide incubator (37° C., 5% CO2, under a humidified condition). […]
Then, the sample solution was diluted 10-fold with the blank matrix, and 20 μL of the diluted sample solution was collected in a PP tube. 20 μL of acetonitrile, 20 μL of the internal standard solution, and 50 μL methanol were added to and mixed with the diluted sample solution, and the mixture was subjected to LC/MS/MS under the following conditions to quantify a sirolimus concentration in the measurement sample. The mass of sirolimus that transferred to the dermic layer was calculated from the obtained value of the sirolimus concentration and the mass of the dermic layer used in the preparation of the sample solution. […]

[3] = Effects of mixing amount of BHT on stability of sirolimus, HPLC quantification; assay type: physicochemical; conditions: BHT mixed at a concentration of 1% or higher; 40° C. and 50° C. for 2 weeks
Method: Quantification of sirolimus was performed by conducting an HPLC test under the following conditions and comparing the area of a sirolimus peak in a test substance and the area of a sirolimus peak in a sirolimus standard.
Detector: ultraviolet absorption photometer (detection wavelength: 278 nm)
Column: stainless steel tube with internal diameter of 4.6 mm and length of 250 mm filled with octadecylsilyl-silica gel for chromatography
Column temperature: constant temperature of about 40° C.
Mobile phase: acetonitrile/0.02 mol/L ammonium acetate buffer (pH 6.0)=13/7
Solutions were prepared by mixing various concentrations of BHT into the ethanol solution of sirolimus, and the solutions were stored at 40° C. and 50° C. for 2 weeks. Quantification of sirolimus was performed on samples after the storage by the same method as that in Reference Example 2 to calculate residual ratios.

Solubility in a single solvent ([1]; each solvent of Table 1): did not dissolve
Solubility ([1]; solvent 1,3 Butylene glycol, about 50° C.): Insoluble (cloudy liquid)
Solubility ([1]; solvent Diethyl sebacate, about 50° C.): Insoluble (cloudy liquid)
Solubility ([1]; solvent Diisopropyl sebacate, about 50° C.): Insoluble (cloudy liquid)
Solubility ([1]; solvent Ethylene glycol salicylate, about 50° C.): Insoluble (cloudy liquid)
Solubility ([1]; solvent Medium-chain fatty acid triglyceride, heating and ultrasonic irradiation about 50° C.): Insoluble (cloudy liquid)
Solubility ([1]; solvent Polyethylene glycol (Macrogol 400), about 50° C.): Insoluble (cloudy liquid)
Solubility ([1]; solvent Propylene glycol, about 50° C.): Insoluble (cloudy liquid)
Solubility ([1]; solvent Squalane, about 50° C.): Insoluble (cloudy liquid)
Solubility ([1]; solvent Triacetin, about 50° C.): Insoluble (cloudy liquid)
Skin penetrating properties ([2]; sirolimus ointment prepared in Example 4, EFT-400 skin model): sufficiently maintained
Stability of sirolimus [3]: stability of sirolimus was maintained
Compound: CO[C@H]1C[C@@H]2CC[C@@H](C)[C@@](O)(O2)C(=O)C(=O)N2CCCC[C@H]2C(=O)O[C@H]([C@H](C)C[C@@H]2CC[C@@H](O)[C@H](OC)C2)CC(=O)[C@H](C)/C=C(\C)[C@@H](O)[C@@H](OC)C(=O)[C@H](C)C[C@H](C)/C=C/C=C/C=C/1C [sirolimus]
Rate of sirolimus transferred to the dermic layer ([2]; sirolimus ointment prepared in Example 4, about 50 mg applied, 24 hours incubation, LC/MS/MS): 1.402 % with respect to the indicated dose
